{
  "source": "patent US4382934A",
  "about": "“Isatin derivatives, processes for the preparation thereof and pharmaceutical composition comprising the same” (Fujisawa Pharmaceutical Co., Ltd., priority 1978, dated 1983)",
  "system": "anaphylactic asthma in guinea-pigs",
  "experiment": "Antagonism to anaphylactic asthma in guinea-pigs",
  "assay_type": "in vivo, guinea-pig (male Hartley)",
  "settings": "30 min before egg albumin aerosol; for Inhibitory effect of anaphylactic asthma in guinea-pig: survival more than 2 hours",
  "protocol": "(1) Preparation of rabbit antiserum against egg albumin\nEqual volumes of a saline solution of egg albumin (200 mg./ml.) and of Freund's Complete Ajuvant were mixed and emulsified. Each male New Zealand white strain rabbits, each weighing 2 to 2.5 kg., received an intramuscular injection of 0.5 ml. of the emulsion in the left and right thigh regions. One week later, they received an intradermal injection of 0.25 ml. of a saline solution of egg albumin (concentration: 20 mg./ml.) in the different four sites of the dorsal skin surface three times every other week. Blood samples were collected from the carotid artery one week after the last injection.\n(2) Determination of Passive Cutaneous Anaphylaxis (PCA) titer\nThe level of anaphylactic anti-egg albumin antibodies in pools of sera were determined by passive cutaneous anaphylaxis (PCA) reactions using shaven Hartley strain test guinea-pigs.\nAntiserum was serially diluted (two fold) in saline and 0.1 ml. of each antiserum dilution were injected intradermally into the dorsal skin surface of the test guinea-pigs. 24 Hours after intradermal sensitization,Egg albumin-specific PCA reactions were elicited by intravenous injection of 10 mg. of egg albumin in 1 ml. of 1% Evans blue dye dissolved in saline. Reactions were read and recorded as the highest dilution of serum evoking threshold PCA reactivity (5 mm diameter).\n(3) Antagonism to anaphylactic asthma in guinea-pigs\nMale Hartley stain guinea-pigs, weighing 305 to 400 g, were used. Animals were sensitized by an intravenous injection of rabbit antiserum against egg albumin (4000 PCA titer) with 0.5 ml./animal. After 24 hours, animals were placed individually in a plastic chamber of 5.3 liter volume. An aerosol of 5% egg albumin solution was sprayed in the chamber at a rate of 0.16 ml./min with a commercial nebulizer. The test compound was given to the animals orally 30 minutes before the challenge with the egg albumin solution. Each dose group consisted of ten animals. The inhibitory effect of the test compound was determined from the number of surviving animals more than 2 hours after spray of the antigen. The ED50 value (dose to be required 50% protection from death) was calculated according to Litchfield-Wilcoxon method.",
  "data": [
    {"smiles": "O=C1C(=O)N(CCCN2CCN(C(c3ccccc3)c3ccccc3)CC2)c2ccccc21", "note": "[1-[3-(4-Benzhydryl-1-piperazinyl)propyl]isatin]", "values": [
      {"measurement": "Inhibitory effect of anaphylactic asthma in guinea-pig", "setting": "0.1 mg./kg. P.O.", "result": 0, "unit": "%"},
      {"measurement": "Inhibitory effect of anaphylactic asthma in guinea-pig", "setting": "1.0 mg./kg. P.O.", "result": 20, "unit": "%"},
      {"measurement": "Inhibitory effect of anaphylactic asthma in guinea-pig", "setting": "3.2 mg./kg. P.O.", "result": 40, "unit": "%"},
      {"measurement": "Inhibitory effect of anaphylactic asthma in guinea-pig", "setting": "10.0 mg./kg. P.O.", "result": 80, "unit": "%"},
      {"measurement": "Inhibitory effect of anaphylactic asthma in guinea-pig", "setting": "32.0 mg./kg. P.O.", "result": 100, "unit": "%"},
      {"measurement": "Inhibitory effect of anaphylactic asthma in guinea-pig", "setting": "100.0 mg./kg. P.O.", "result": 100, "unit": "%"},
      {"measurement": "ED50", "setting": "Cavia porcellus, po, 2 h, P.O., Litchfield-Wilcoxon method, read-out: ED50 (dose to be required 50% protection from death)", "result": 3.4, "unit": "mg/kg"}
    ]}
  ]
}
